# From patent publication US7199114B2, “Triterpene quaternary salts as biologically active surfactants” (The Regents of the University of Minnesota, priority 2002, dated 2007)
# How the values were obtained:
# [1] = tested on: dollar spot; assay: Antifungal treatment on turf grass plots (Example 84), dollar spot count; type: in vivo; conditions: 17.8 g/1000 sq. ft. (Daconil Ultrex 3.2 oz./1000 sq. ft.)
# Protocol: (§1) Plots of creeping bentgrass, cv. “Pennlinks,” were treated with water based sprays of the test compounds. Sprays were delivered by CO2-charged sprayer to deliver the equivalent of 2 gallons of spray per 1000 sq. ft of plot area. Plots were 15 sq. ft. each, and treatments were mixed to apply material to 75 sq. ft (5 replicates), although only 4 replicates were treated. The quaternary salts of triterpenes were applied at 17.8 g/1000 sq. ft. for 14 days. Daconil Ultrex® was applied at 3.2 oz./1000 sq. ft. for 14 days. The experiment used a randomized complete block design, with 4 replicates per treatment. Disease pressure was high. Pennlinks […] is moderately to highly susceptible to both dollar spot and brown patch. For brown patch, caused by Rhozoctonia sofani. a visual estimate of the percent of the plot area affected was recorded. Turf quality was estimated on a 1 to 9 scale, with 1 being worst and 9 being perfect. A rating of 6 is considered acceptable.
# [2] = tested on: brown patch, caused by Rhozoctonia sofani; assay: Antifungal treatment on turf grass plots (Example 84), brown patch; type: in vivo; conditions: 17.8 g/1000 sq. ft. (Daconil Ultrex 3.2 oz./1000 sq. ft.)
# Protocol: as §1
# [3] = Antifungal treatment on turf grass plots (Example 84), turf quality; type: in vivo, creeping bentgrass, cv. Pennlinks; conditions: 1 to 9 scale, 9 perfect, 17.8 g/1000 sq. ft. (Daconil Ultrex 3.2 oz./1000 sq. ft.)
# Protocol: as §1
# [4] = tested on: dollar spot fungus (Agrostis stolonifera); assay: Turf plot trial at Clemson University (Example 85), area affected by dollar spot; type: in vivo; conditions: 50 grams active ingredient per 1000 square feet
# Protocol: (§2) Plots of creeping bentgrass, cv. “Pennlinks,” were treated with water based sprays of the test compounds. Sprays were delivered by CO2-charged sprayer to deliver the equivalent of 2 gallons of spray per 1000 sq. ft of plot area. Plots were 15 sq. ft. each, and treatments were mixed to apply material to 75 sq. ft (5 replicates), although only 4 replicates were treated. […] Daconil Ultrex® was applied at 3.2 oz./1000 sq. ft. for 14 days. The experiment used a randomized complete block design, with 4 replicates per treatment. Disease pressure was high. Pennlinks […] is moderately to highly susceptible to both dollar spot and brown patch. For brown patch, caused by Rhozoctonia sofani. a visual estimate of the percent of the plot area affected was recorded. Turf quality was estimated on a 1 to 9 scale, with 1 being worst and 9 being perfect. A rating of 6 is considered acceptable.
# (§3) Plots of creeping bentgrass, cv. Pennlinks, were treated with water-based sprays as in Example 84 at Clemson University. Treatment application dates were May 7. May 14, May 28, and June 11. Plots were rated visually, estimating the percent of the area affected by dollar spot fungus […]. Turf quality was rated on a 1 to 9 scale, with 9 being perfect turf, as in Example 84. Disease pressure was moderately high to high when the trial was initiated, with existing dollar spot present.
# [5] = Turf plot trial at Clemson University (Example 85), turf quality; type: in vivo, creeping bentgrass, cv. Pennlinks; conditions: 1 to 9 scale, 50 grams active ingredient per 1000 square feet
# Protocol: as §2, §3
# [6] = Table 2 experiment, Jul. 2, 2001
# [7] = Table 2 experiment, Jul. 16, 2001
# [8] = Table 2 experiment, Jun. 25, 2001
# [9] = Table 3 experiment, Jul. 2, 2001
# [10] = Table 3 experiment, Jul. 9, 2001
# [11] = Table 3 experiment, Jul. 16, 2001
# [12] = Table 3 experiment, Jun. 25, 2001
# [13] = Table 2 experiment, Jul. 9, 2001
Structure (SMILES),"Dollar Spot # of spots per plot [1, 6] [spots per plot]","Dollar Spot # of spots per plot [1, 7] [spots per plot]","Dollar Spot # of spots per plot [1, 8] [spots per plot]","Dollar Spot # of spots per plot [1, 9]","Dollar Spot # of spots per plot [1, 10] [spots per plot]","Dollar Spot # of spots per plot [1, 11] [spots per plot]","Dollar Spot # of spots per plot [1, 12] [spots per plot]","Brown Patch % of plot infected [2, 6] [%]","Brown Patch % of plot infected [2, 13] [%]","Brown Patch % of plot infected [2, 7] [%]","Brown Patch % of plot infected [2, 8] [%]","Brown Patch % of plot infected [2, 9] [%]","Brown Patch % of plot infected [2, 10]","Brown Patch % of plot infected [2, 11] [%]","Brown Patch % of plot infected [2, 12] [%]","Turf quality [3, 6]","Turf quality [3, 13]","Turf quality [3, 7]","Turf quality [3, 8]","Turf quality [3, 9]",also measured
"C=C(C)[C@@H]1CC[C@]2(COC(=O)C[n+]3ccccc3)CC[C@]3(C)C(CCC4[C@@]5(C)CC[C@H](OC(=O)C[n+]6ccccc6)C(C)(C)C5CC[C@]43C)C12.[Cl-].[Cl-] (some centres unmarked) [Compound 1, Lup-20(29)-ene3,28-bis-(N-pyridiniumacetate) dichloride]",22.3,2.8,21.0,suppressed dollar spot,13.0,1.5,11.5,35.0,13.8,3.8,18.8,24.0,20.5%,8.6,15.8,4.50,6.00,5.57,4.50,4.50,"Dollar Spot # of spots per plot ([1]; Table 3 experiment, Jul. 2, 2001, listed as Comp. 1): 15.8 spots per plot; Turf quality [3, 10]: 5.38; Turf quality [3, 12]: 4.88"
"C=C(C)[C@@H]1CC[C@]2(COC(=O)C[N+](C)(C)CCN(C)C)CC[C@]3(C)C(CCC4[C@@]5(C)CC[C@H](OC(=O)C[N+](C)(C)CCN(C)C)C(C)(C)C5CC[C@]43C)C12.[Cl-].[Cl-] (some centres unmarked) [Compound 7, Lup-20(29)-ene-3,28-bis[(tetramethylethylenediamine-N-yl)acetate] dichloride]",22.3,2.3,18.3,21.5 spots per plot,14.5,2.0,14.8,20.5,20.0,3.8,24.5,25.5,significantly suppress brown patch,8.8,17.5,4.25,4.50,5.60,4.50,4.50,"Brown Patch % of plot infected ([2]; Table 3 experiment, Jul. 9, 2001, listed as Comp. 7): 10.8%; Turf quality [3, 10]: 5.88; Turf quality [3, 12]: 4.36"
"C=C(C)[C@@H]1CC[C@]2(COC(=O)CC[n+]3ccccc3)CC[C@]3(C)C(CCC4[C@@]5(C)CC[C@H](OC(=O)CC[n+]6ccccc6)C(C)(C)C5CC[C@]43C)C12.[Cl-].[Cl-] (some centres unmarked) [Compound 14, Lup-20 (29)-ene-3,28-bis (N-pyridinium-3-propionate) dichloride]",21.8,3.5,22.3,20.8 spots per plot,14.5,2.8,16.3,36.8,25.0,5.0,25.8,31.3,16.5%,7.5,16.3,4.25,4.63,5.60,4.38,4.75,"Turf quality [3, 10]: 5.00; Turf quality [3, 12]: 4.88"
"C=C(C)[C@@H]1CC[C@]2(COC(=O)C[n+]3ccc(N(C)C)cc3)CC[C@]3(C)C(CCC4[C@@]5(C)CC[C@H](OC(=O)C[n+]6ccc(N(C)C)cc6)C(C)(C)C5CC[C@]43C)C12.[Cl-].[Cl-] (some centres unmarked) [Compound 46, Lup-20(29)-ene-3,28-bis[N-(4-dimethylaminopyridinium)acetate] dichloride]",,,,,,,,,,,,,,,,,,,,,"% of area infected ([4]; Table 5 c2, Jun. 3, 2002): 23.5 a %; % of area infected ([4]; Table 5 c4, Jun. 3, 2002): 24.0 a %; % of area infected ([4]; Table 6, May 8, 2002): 30.5 a %; % of area infected ([4]; Table 6, May 13, 2002): 28.0 a %; % of area infected ([4]; Table 6, May 20, 2002): 25.0 bc %; % of area infected ([4]; Table 6, May 27, 2002): 26.8 bcd %; Turf quality ([5]; Table 5, Jun. 3, 2002): 5.40 ab; Turf quality ([5]; Table 5, Jun. 17, 2002): 4.52 ab; Turf quality ([5]; Table 5, May 27, 2002): 4.00 ab; Turf quality ([5]; Table 6, May 8, 2002): 3.25 a; Turf quality ([5]; Table 6, May 13, 2002): 3.38 a; Turf quality ([5]; Table 6, May 20, 2002): 3.50 a"
C=C(C)[C@@H]1CC[C@]2(CO)CC[C@]3(C)C(CCC4[C@@]5(C)CC[C@H](OC(=O)C[N+](C)(C)CCCCCCCCCCCCCC)C(C)(C)C5CC[C@]43C)C12.[Cl-] (some centres unmarked) [Compound 56],,,,,,,,,,,,,,,,,,,,,"% of area infected ([4]; Table 5 c2, Jun. 3, 2002): 22.0 a %; % of area infected ([4]; Table 5 c4, Jun. 3, 2002): 19.3 ab %; % of area infected ([4]; Table 6, May 8, 2002): 31.0 a %; % of area infected ([4]; Table 6, May 13, 2002): 26.5 a %; % of area infected ([4]; Table 6, May 20, 2002): 32.0 bc %; % of area infected ([4]; Table 6, May 27, 2002): 21.8 cd %; Turf quality ([5]; Table 5, Jun. 3, 2002): 5.30 ab; Turf quality ([5]; Table 5, Jun. 17, 2002): 5.38 ab; Turf quality ([5]; Table 5, May 27, 2002): 4.47 ab; Turf quality ([5]; Table 6, May 8, 2002): 3.13 a; Turf quality ([5]; Table 6, May 13, 2002): 3.00 a; Turf quality ([5]; Table 6, May 20, 2002): 3.03 ab"
